# Assay results published in patent EP0117060A2, “Methods of screening and amplification in eukaryotic host cells, and nucleotide sequences and expression vectors for use therein” (GENENTECH, INC., priority 1983, dated 1984).
# Experiments:
# Format in all cases: cell-based, Chinese hamster
# [1] = system: CHO-DUX-B11 (dhfr-) cells transfected with pFR400 (pFR400.1); test: Growth inhibition by MTX, 3 day cell count assay, pFR400 transfected clone; conditions: Cricetulus griseus, 72 h; FR400.1 cells (colony from pFR400 transfected dhfr- cells, mutant DHFR 3T6 R400); 3 days, cells counted; read-out: 50 percent inhibition level
# Method: (§1) A deficiency of the wild type DHFR as a selectable marker in tissue culture systems is the relatively low degree of MTX resistance conferred upon the transfected cells by the transfected wild type enzyme expression plasmid. […] Individual colonies were isolated from pFR400 or pFDll transfected dhfr- cells and propagated in the absence of MTX. Equal amounts of cells from two clones and of CHO-Kl cells were trypsinized and split into 60 mm dishes. Various levels of MTX were added to each dish, the cells incubated for 3 days, and then counted.
# (§2) The pFDll transfected cells were clearly less capable of growing in high levels of MTX than were the CHO-K1 (DHFR^+) cells grown under identical conditions. The level of MTX which inhibits cell growth by 50 percent over the 3 day assay was approximately 3 nM for cells derived from the pFDll transfected colony (pFD11.1) and was 20nM for CHO-K1 cells. In contrast to this, the colony (pFR400.1) isolated from the cells transfected with pFR400, was able to grow in extremely high levels of MTX. The 50 percent inhibition level for FR400.1 cells is approximately 3000 nM.
# [2] = system: CHO-DUX-B11 (dhfr-) cells transfected with pFD11 (pFD11.1); test: Growth inhibition by MTX, 3 day cell count assay, pFD11 transfected clone; conditions: Cricetulus griseus, 72 h; cells from the pFD11 transfected colony (pFD11.1), wild type DHFR plasmid; 3 days, cells counted; read-out: level of MTX which inhibits cell growth by 50 percent over the 3 day assay
# Method: as §1, §2
# CHO-K1 cells = test: Growth inhibition by MTX, 3 day cell count assay, untransformed wild type cells; conditions: Cricetulus griseus, 72 h, CHO-K1 (DHFR+) cells, 3 days, cells counted, read-out: level of MTX which inhibits cell growth by 50 percent over the 3 day assay
# Method: as §1, §2
smiles,measurement,setting,value
"CN(Cc1cnc2nc(N)nc(N)c2n1)c1ccc(C(=O)N[C@@H](CCC(=O)O)C(=O)O)cc1 [MTX, methotrexate]",IC50,[1],~3000 nM
same,IC50,[2],~3 nM
same,IC50,CHO-K1 cells,20 nM
